Reference: US8889874B2, “Imidazolone-chalcone derivatives as potential anticancer agent and process for the preparation thereof” (Council of Scientific and Industrial Research, priority 2010, dated 2014)

Columns and labels:
Format in all cases: cell-based, human
[1] = tested on: Ovarian cancer cell lines; assay: NCI anticancer screen, SRB assay, panel summary
Experimental: (§1) Some of biological activity studies were carried out at the National Cancer Institute (NCI), Maryland, USA.
(§2) The compounds were evaluated for anticancer activity against fifty three human cancer cells derived from nine cancer types (leukemia cell line, non-small-cell lung cell line, colon cell line, CNS cell line, melanoma cell line, ovarian cell line, prostate cell line, and breast cancer cell line) as shown in Table 1. For each compound, dose response curves for each cell line were measured at a minimum of five concentrations at 10 fold dilutions. A protocol of 48 h continuous drug exposure was used and a sulforhodamine B (SRB) protein assay was used to estimate cell viability or growth.

Breast cancer cell lines = assay: NCI anticancer screen, SRB assay, panel summary
Experimental: as §1, §2

[2] = tested on: Melanoma cancer cell lines; assay: NCI anticancer screen, SRB assay, panel summary; conditions: Melanoma panel
Experimental: as §1, §2

CNS cancer cell lines = assay: NCI anticancer screen, SRB assay, panel summary; conditions: CNS panel
Experimental: as §1, §2

[3] = tested on: Non-small cell lung cancer cell lines; assay: NCI anticancer screen, SRB assay, panel summary
Experimental: as §1, §2

Renal cancer cell lines = assay: NCI anticancer screen, SRB assay, panel summary
Experimental: as §1, §2

Colon cancer cell lines = assay: NCI anticancer screen, SRB assay, panel summary; conditions: Colon panel
Experimental: as §1, §2

[4] = tested on: Leukemia cancer cell lines; assay: NCI anticancer screen, SRB assay, panel summary; conditions: Leukemia panel
Experimental: as §1, §2

SK-MEL-2 (melanoma) = assay: NCI anticancer screen, SRB assay, 48 h
Summary of the method: (§3)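 Sulforhodamine B protein assay read cell growth after 48 h of continuous compound exposure. Dose-response curves per cell line used at least five 10-fold-diluted concentrations, within a panel of fifty-three human lines from nine tumour types.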

M14 (melanoma) = assay: NCI anticancer screen, SRB assay, 48 h
Summary of the method: as §3

HCT-116 (colon) = assay: NCI anticancer screen, SRB assay, 48 h
Summary of the method: as §3

SW-620 (colon) = assay: NCI anticancer screen, SRB assay, 48 h
Summary of the method: as §3

SF-539 (CNS) = assay: NCI anticancer screen, SRB assay, 48 h
Summary of the method: as §3

TD-47D (breast) = assay: NCI anticancer screen, SRB assay, 48 h
Summary of the method: as §3

BT-549 (breast) = assay: NCI anticancer screen, SRB assay, 48 h
Summary of the method: as §3

SF-295 (CNS) = assay: NCI anticancer screen, SRB assay, 48 h
Summary of the method: as §3

SK-OV-3 (ovarian) = assay: NCI anticancer screen, SRB assay, 48 h
Summary of the method: as §3

SK-MEL-28 (melanoma) = assay: NCI anticancer screen, SRB assay, 48 h
Summary of the method: as §3

[5] = tested on: NCI-H522 (non-small cell lung); assay: NCI anticancer screen, SRB assay, 48 h
Summary of the method: as §3

OVCAR-3 (ovarian) = assay: NCI anticancer screen, SRB assay, 48 h
Summary of the method: as §3

RXF 393 (renal) = assay: NCI anticancer screen, SRB assay, 48 h
Summary of the method: as §3

UACC-62 (melanoma) = assay: NCI anticancer screen, SRB assay, 48 h
Summary of the method: as §3

[6] = tested on: NCI-H460 (non-small cell lung); assay: NCI anticancer screen, SRB assay, 48 h
Summary of the method: as §3

UO-31 (renal) = assay: NCI anticancer screen, SRB assay, 48 h
Summary of the method: as §3

SF-268 (CNS) = assay: NCI anticancer screen, SRB assay, 48 h
Summary of the method: as §3

[7] = log of concentration in mol/L causing 50% inhibition of net cell growth
[8] = log of concentration leading to 50% net cell death
[9] = log of concentration resulting in total inhibition of net cell growth
[10] = 48 h exposure, SRB, read-out: GI50

Structure (SMILES): COc1cc(/C=C/C(=O)c2cccc(-n3cc(-c4ccc(Cl)cc4)[nH]c3=O)c2)cc(OC)c1OC [5f, 4-(4-chlorophenyl)-1-3-[(E)-3-(3,4,5-trimethoxyphenyl)-2-propenoyl]phenyl-2,3-dihydro-1H-2-imidazolone]
- mean graph midpoint (MG_MID) of Log10 LC50 [1]: 4.22
- mean graph midpoint (MG_MID) of Log10 GI50 ([1]; Ovarian panel, log of concentration in mol/L causing 50% inhibition of net cell growth): 5.26
- mean graph midpoint (MG_MID) of Log10 TGI ([1]; Ovarian panel, log of concentration resulting in total inhibition of net cell growth): 4.62
- mean graph midpoint (MG_MID) of Log10 LC50 (Breast cancer cell lines): 4.11
- mean graph midpoint (MG_MID) of Log10 GI50 (Breast cancer cell lines; Breast panel, log of concentration in mol/L causing 50% inhibition of net cell growth): 5.18
- mean graph midpoint (MG_MID) of Log10 TGI (Breast cancer cell lines; Breast panel, log of concentration resulting in total inhibition of net cell growth): 4.38
- mean graph midpoint (MG_MID) of Log10 GI50 [2, 7]: 5.17
- mean graph midpoint (MG_MID) of Log10 LC50 [2, 8]: 4.24
- mean graph midpoint (MG_MID) of Log10 TGI [2, 9]: 4.56
- mean graph midpoint (MG_MID) of Log10 GI50 (CNS cancer cell lines; [7]): 5.08
- mean graph midpoint (MG_MID) of Log10 LC50 (CNS cancer cell lines; [8]): 4.24
- mean graph midpoint (MG_MID) of Log10 TGI (CNS cancer cell lines; [9]): 4.50
- mean graph midpoint (MG_MID) of Log10 LC50 [3]: 4.06
- mean graph midpoint (MG_MID) of Log10 GI50 ([3]; Non-small cell lung panel, log of concentration in mol/L causing 50% inhibition of net cell growth): 4.72
- mean graph midpoint (MG_MID) of Log10 TGI ([3]; Non-small cell lung panel, log of concentration resulting in total inhibition of net cell growth): 4.28
- mean graph midpoint (MG_MID) of Log10 LC50 (Renal cancer cell lines): 3.73
- mean graph midpoint (MG_MID) of Log10 GI50 (Renal cancer cell lines; Renal panel, log of concentration in mol/L causing 50% inhibition of net cell growth): 5.15
- mean graph midpoint (MG_MID) of Log10 TGI (Renal cancer cell lines; Renal panel, log of concentration resulting in total inhibition of net cell growth): 4.55
- mean graph midpoint (MG_MID) of Log10 GI50 (Colon cancer cell lines; [7]): 5.53
- mean graph midpoint (MG_MID) of Log10 LC50 (Colon cancer cell lines; [8]): 4.76
- mean graph midpoint (MG_MID) of Log10 TGI (Colon cancer cell lines; [9]): 5.15
- mean graph midpoint (MG_MID) of Log10 GI50 [4, 7]: 5.42
- mean graph midpoint (MG_MID) of Log10 TGI [4, 9]: 4.00
- pGI50 (-log of molar concentration causing 50% inhibition of net cell growth) (SK-MEL-2 (melanoma)): 5.46
- GI50 (SK-MEL-2 (melanoma); [10]): 3.44 µM
- pGI50 (-log of molar concentration causing 50% inhibition of net cell growth) (M14 (melanoma)): 5.36
- GI50 (M14 (melanoma); [10]): 4.36 µM
- pGI50 (-log of molar concentration causing 50% inhibition of net cell growth) (HCT-116 (colon)): 5.86
- GI50 (HCT-116 (colon); [10]): 1.39 µM
- pGI50 (-log of molar concentration causing 50% inhibition of net cell growth) (SW-620 (colon)): 5.76
- GI50 (SW-620 (colon); [10]): 1.75 µM
- pGI50 (-log of molar concentration causing 50% inhibition of net cell growth) (SF-539 (CNS)): 5.46
- GI50 (SF-539 (CNS); [10]): 3.49 µM
- pGI50 (-log of molar concentration causing 50% inhibition of net cell growth) (TD-47D (breast)): 5.18
- GI50 (TD-47D (breast); [10]): 6.65 µM
- pGI50 (-log of molar concentration causing 50% inhibition of net cell growth) (BT-549 (breast)): 4.91
- GI50 (BT-549 (breast); [10]): 12.3 µM
- pGI50 (-log of molar concentration causing 50% inhibition of net cell growth) (SF-295 (CNS)): 4.61
- GI50 (SF-295 (CNS); [10]): 24.3 µM
- pGI50 (-log of molar concentration causing 50% inhibition of net cell growth) (SK-OV-3 (ovarian)): 4.50
- GI50 (SK-OV-3 (ovarian); [10]): 31.4 µM
- pGI50 (-log of molar concentration causing 50% inhibition of net cell growth) (SK-MEL-28 (melanoma)): 4.96
- GI50 (SK-MEL-28 (melanoma); [10]): 10.9 µM
- pGI50 (-log of molar concentration causing 50% inhibition of net cell growth) [5]: 5.39
- GI50 [5, 10]: 4.1 µM
- pGI50 (-log of molar concentration causing 50% inhibition of net cell growth) (OVCAR-3 (ovarian)): 5.61
- GI50 (OVCAR-3 (ovarian); [10]): 2.4 µM
- GI50 (RXF 393 (renal); RXF 393, 48 h exposure, SRB, read-out: GI50): 3.22 µM
- pGI50 (-log of molar concentration causing 50% inhibition of net cell growth) (RXF 393 (renal); RXF-393): 5.49
- pGI50 (-log of molar concentration causing 50% inhibition of net cell growth) (UACC-62 (melanoma)): 5.05
- GI50 (UACC-62 (melanoma); [10]): 8.88 µM
- pGI50 (-log of molar concentration causing 50% inhibition of net cell growth) [6]: 5.43
- GI50 [6, 10]: 3.74 µM
- pGI50 (-log of molar concentration causing 50% inhibition of net cell growth) (UO-31 (renal)): 5.15
- GI50 (UO-31 (renal); [10]): 7.03 µM
- pGI50 (-log of molar concentration causing 50% inhibition of net cell growth) (SF-268 (CNS)): 5.29
- GI50 (SF-268 (CNS); [10]): 5.07 µM
